In PMC5086919, “Antileukemic Scalarane Sesterterpenoids and Meroditerpenoid from Carteriospongia (Phyllospongia) sp., Induce Apoptosis via Dual Inhibitory Effects on Topoisomerase II and Hsp90” (Scientific Reports, 2016):
Values after ≈ are worked out from the molar mass of the structure shown. Read-outs that look alike come from different tables or passages of the source.

Columns and labels:
human topoisomerase II = molecular target: T1, human topoisomerase II (Homo sapiens, UniProt P11388); experiment: Cell-free topoisomerase II DNA relaxation/cleavage assay with supercoiled pHOT1 plasmid DNA; type: biochemical; settings: for inhibition at 0.08 µg/mL: 0.08 μg/mL; for inhibition at 0.08 µg/mL / inhibition at 0.312 µg/mL / inhibition at 1.25 µg/mL / inhibition at 5 µg/mL / inhibition at 20 µg/mL: compared with control supercoiled DNA; for inhibition at 0.312 µg/mL: 0.312 μg/mL; for inhibition at 1.25 µg/mL: 1.25 μg/mL; for inhibition at 5 µg/mL: 5 μg/mL; for inhibition at 20 µg/mL: 20 μg/mL
T1 construct: purchased Topogen
T1 sequence (P11388 whole entry): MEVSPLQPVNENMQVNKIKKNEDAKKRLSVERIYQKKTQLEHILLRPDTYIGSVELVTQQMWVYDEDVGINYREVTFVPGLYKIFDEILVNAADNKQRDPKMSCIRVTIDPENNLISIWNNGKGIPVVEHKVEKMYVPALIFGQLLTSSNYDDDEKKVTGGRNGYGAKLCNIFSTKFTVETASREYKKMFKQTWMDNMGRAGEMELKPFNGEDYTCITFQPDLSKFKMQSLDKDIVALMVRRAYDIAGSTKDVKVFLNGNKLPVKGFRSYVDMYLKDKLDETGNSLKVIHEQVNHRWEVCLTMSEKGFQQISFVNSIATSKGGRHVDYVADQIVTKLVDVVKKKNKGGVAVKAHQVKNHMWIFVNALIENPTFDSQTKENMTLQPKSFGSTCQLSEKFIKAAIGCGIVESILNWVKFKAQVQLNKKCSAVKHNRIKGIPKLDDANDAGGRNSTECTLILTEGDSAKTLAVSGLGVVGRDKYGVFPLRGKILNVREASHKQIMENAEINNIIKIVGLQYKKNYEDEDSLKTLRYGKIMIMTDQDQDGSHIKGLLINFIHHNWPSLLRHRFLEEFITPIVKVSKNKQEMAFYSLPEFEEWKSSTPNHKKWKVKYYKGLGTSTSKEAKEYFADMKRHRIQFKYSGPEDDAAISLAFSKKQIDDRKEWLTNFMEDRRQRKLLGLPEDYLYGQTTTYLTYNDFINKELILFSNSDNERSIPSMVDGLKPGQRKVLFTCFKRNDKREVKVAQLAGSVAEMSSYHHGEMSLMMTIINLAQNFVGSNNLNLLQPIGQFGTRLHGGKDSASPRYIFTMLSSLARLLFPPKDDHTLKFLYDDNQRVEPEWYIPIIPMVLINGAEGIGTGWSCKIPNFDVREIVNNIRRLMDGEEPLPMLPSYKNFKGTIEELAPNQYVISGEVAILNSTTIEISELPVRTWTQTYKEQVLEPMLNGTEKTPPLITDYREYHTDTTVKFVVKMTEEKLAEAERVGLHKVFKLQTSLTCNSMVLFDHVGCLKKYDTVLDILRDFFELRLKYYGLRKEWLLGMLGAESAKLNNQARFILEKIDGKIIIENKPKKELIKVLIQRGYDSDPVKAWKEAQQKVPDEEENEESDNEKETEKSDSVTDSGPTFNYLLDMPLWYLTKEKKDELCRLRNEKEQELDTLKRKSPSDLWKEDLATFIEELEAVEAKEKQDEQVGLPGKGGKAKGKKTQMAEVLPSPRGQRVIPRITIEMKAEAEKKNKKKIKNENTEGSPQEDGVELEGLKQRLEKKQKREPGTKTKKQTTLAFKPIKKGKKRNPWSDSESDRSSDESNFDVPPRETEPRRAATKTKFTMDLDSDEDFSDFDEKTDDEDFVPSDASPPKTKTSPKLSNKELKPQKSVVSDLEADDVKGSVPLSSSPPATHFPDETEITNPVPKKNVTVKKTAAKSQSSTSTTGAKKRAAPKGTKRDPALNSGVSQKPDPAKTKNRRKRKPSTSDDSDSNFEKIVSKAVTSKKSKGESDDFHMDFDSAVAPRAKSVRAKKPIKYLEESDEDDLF
Excerpt: (§1) The ability of Topo II to generate DNA damage in the presence of Topo II-targeting agents led to the hypothesis that an important determinant of drug sensitivity was related to the overall level of Topo II[17]. […] Such findings encouraged us to evaluate the effect of the isolates on Topo II activity. In order to confirm whether the DNA damage-induced by the isolated sesterterpenoids involved the inhibition of Topo II activity, a cell-free DNA cleavage assay using an enzyme-mediated negatively supercoiled pHOT1 plasmid DNA was applied. […] These marine terpenoids suppressed Topo II activity, resulting in the inhibition of supercoiled DNA relaxation in a dose-dependent manner (Fig. 5A). […] To determine whether the apoptotic mechanism of these compounds affects γH2AX (as a biomarker of DNA damage) induction, Western blot analysis was employed to examine the activation of γH2AX.
The assay was performed as described previously. […] Reactions were terminated by adding 2 μL of 10% SDS to facilitate trapping the enzyme in a cleavage complex, followed by the addition of 2.5 μL of proteinase K (50 μg/mL) to digest the bound protein (incubated at 37 °C for 15 min) and finally by adding 0.1 volume of the sample loading dye. The DNA products were analyzed via electrophoresis through vertical 2% agarose gels at 2 voltage/cm in 0.5 × TAE buffer. Gels were stained with ethidium bromide and photographed using an Eagle Eye II system (Stratagene, La Jolla, CA, USA). The quantitative analysis of the DNA Topo II activity was performed as described previously.

Molt 4 cells [1] = experiment: MTT antiproliferative assay, leukemia Molt 4 cells; type: cell-based; settings: Homo sapiens
Ca9-22 cells = experiment: MTT antiproliferative assay, oral Ca9-22 cells; settings: Homo sapiens, Ca9-22, 72 h, read-out: IC50, cytotoxicity, Oral Ca9-22
Excerpt: (§2) Several cancer cell lines including leukemia K562, Molt 4, and HL 60 cells, prostate cancer LNCaP cells, colon cancer DLD-1 cells and breast cancer T-47D cells were used to evaluate the antiproliferative activity.
(§3) The cell lines were obtained from the American Type Culture Collection (ATCC, Manassas, VA, USA). […] Dimethyl sulfoxide (DMSO), 3-(4,5-dimethylthiazol-2-yl)-2,5-diphenyl-tetrazolium bromide (MTT) and all other chemicals were purchased from Sigma-Aldrich (St. Louis, MO, USA).

K562 cells = experiment: MTT antiproliferative assay, leukemia K562 cells; settings: Homo sapiens, K562, 72 h, read-out: IC50, cytotoxicity, Leukemia K562
Excerpt: as §2, §3

Cal-27 cells = experiment: MTT antiproliferative assay, oral Cal-27 cells; settings: Homo sapiens, CAL-27, 72 h, read-out: IC50, cytotoxicity, Oral Cal-27
Excerpt: as §2, §3

LNCaP cells = experiment: MTT antiproliferative assay, prostate cancer LNCaP cells; settings: Homo sapiens, 72 h
Excerpt: as §2, §3

U937 cells = experiment: MTT antiproliferative assay, lymphoma U937 cells; settings: Homo sapiens, U-937, 72 h, read-out: IC50, cytotoxicity, Lymphoma U937
Molt 4 cells [2] = experiment: MMP disruption, JC-1 staining flow cytometry; type: cell-based, human; settings: 0, 0.0625, 0.125 and 0.25 μg/mL, 24 h
Method: These assays were performed as described previously. […] In brief, the treated cells were labeled with a specific fluorescent dye for 30 min. After labeling, cells were washed with PBS and resuspended in PBS at a concentration of 1 × 10^6 cells/mL before analysis via flow cytometry.

HL 60 cells = experiment: MTT antiproliferative assay, leukemia HL 60 cells; settings: Homo sapiens, HL-60, 72 h, read-out: IC50, cytotoxicity, Leukemia HL 60
Excerpt: as §2, §3

Sup-T1 cells = experiment: MTT antiproliferative assay, lymphoma Sup-T1 cells; settings: Homo sapiens, SUP-T1, 72 h, read-out: IC50, cytotoxicity, Lymphoma Sup-T1
T-47D cells = experiment: MTT antiproliferative assay, breast cancer T-47D cells; settings: Homo sapiens, T47D, 72 h, read-out: IC50, cytotoxicity, Breast T-47D
Excerpt: as §2, §3

DLD-1 cells = experiment: MTT antiproliferative assay, colon cancer DLD-1 cells; settings: Homo sapiens, DLD-1, 72 h, read-out: IC50, cytotoxicity, Colon DLD-1
Excerpt: as §2, §3

γH2AX in Molt 4 cells = experiment: Western blot of γH2AX (DNA damage biomarker); type: cell-based, human; settings: 0, 0.0625, 0.125 and 0.25 μg/mL, 24 h
Excerpt: as §1
Cell lysates were prepared by treating the cells for 30 min in RIPA lysis buffer, 1% Nonidet P-40, 0.5% sodium deoxycholate, 0.1% sodium dodecyl sulphate (SDS), 1 mM sodium orthovanadate, 100 μg/mL phenylmethylsulfonyl fluoride and 30 μg/mL aprotinin) (all chemicals were from Sigma)[38]. The lysates were centrifuged at 20,000 × g for 30 min, and the protein concentration in the supernatant was determined using a BCA protein assay kit (Pierce). Equal amounts of proteins were respectively separated by 7.5%, 10% or 12% of SDS-polyacrylamide gel electrophoresis and then were electrotransferred to a PVDF membrane. The membrane was blocked with a solution containing 5% non-fat dry milk TBST buffer (20 mM Tris-HCl, pH 7.4, 150 mM NaCl and 0.1% Tween 20) for 1 h and washed with TBST buffer. The protein expressions were monitored by immunoblotting using specific antibodies. These proteins were detected by an enhanced chemiluminescence kit (Pierce).

Molt 4 cells [3] = experiment: Annexin V/PI apoptosis assay; type: cell-based, human; settings: 0, 0.0625, 0.125 and 0.25 μg/mL, 24 h, annexin-V/PI
Method: The externalization of phosphatidylserine (PS) and membrane integrity were quantified using an annexin V- FITC staining kit[72]. In brief, 10^6 cells were grown in 35 mm diameter plates and were labeled with annexin V-FITC (10 μg/mL) and PI (20 μg/mL) prior to harvesting. After labeling, all plates were washed with a binding buffer and harvested. Cells were resuspended in the binding buffer at a concentration of 2 × 10^5 cells/mL before analysis by flow cytometer FACS-Calibur (Becton-Dickinson, San Jose, CA, USA) and CellQuest software. Approximately 10,000 cells were counted for each determination.

[4] = tested on: human Molt 4 tumor xenograft; experiment: Human leukemia Molt 4 tumor xenograft animal model; type: in vivo, immunodeficient athymic mice
Excerpt: Compounds 1 and 2 induced apoptosis in several cancer cell lines; however, the amounts isolated were insufficient for further examination of their in vivo antitumor effect. On the other hand, the amount separated from 3 was sufficient to study the in vivo anti-tumor activity by evaluating its effect on tumor growth of human leukemia Molt 4 in xenograft animal model. Molt 4 (1 × 10^6) cells were inoculated subcutaneously at the right flank of female immunodeficient athymic mice. […] The average tumor size on day 33 in the control group was 404.63 mm^3, whereas the average tumor size in compound 3-treated group was 212.10 mm^3 (Fig. 6A).
Establishment of nude mice with xenografts was performed as described previously. Six-week-old […] immunodeficient athymic mice were purchased from the National Laboratory Animal and Research Center (Taipei, Taiwan). All of the animals were maintained under standard laboratory conditions (temperature 24–26 °C, 12–12 h dark-light circle) and fed with laboratory diet and water. This study was approved by the Animal Care and Treatment Committee of Kaohsiung Medical University (IACUC Permit Number 101136). All experiments were conducted in strict accordance with the recommendations in the Guide for the Care and Use of Laboratory Animals of the National Institutes of Health, and all efforts were made to minimize animal stress/distress. Molt 4 cells (1 × 10^6) resuspended in 0.2 mL PBS were injected s.c. into the right flank of each mouse, and tumor growth was monitored every day. Fourteen days after tumor cell injection, mice with confirmed tumor growth were randomly divided into two groups. Compound 3 (1.14 μg/g) was intraperitoneally administered to the treatment group, and the control group received solvent only. Compound 3 was administrated every other day for 33 days. Animals were sacrificed by carbon dioxide. Tumor size was measured three times a week using calipers and tumor volumes were calculated according to the standard formula: width^2 × length/2.

[5] = read-out: IC50, cytotoxicity, Prostate LNCaP (class symbol)
[6] = 72 h, read-out: IC50, cytotoxicity, Leukemia Molt 4

Row | Structure (SMILES) | inhibition at 0.08 µg/mL (human topoisomerase II) [%] | inhibition at 0.312 µg/mL (human topoisomerase II) [%] | inhibition at 1.25 µg/mL (human topoisomerase II) [%] | inhibition at 5 µg/mL (human topoisomerase II) [%] | inhibition at 20 µg/mL (human topoisomerase II) [%] | IC50 (Ca9-22 cells) [µg/mL] | IC50 (K562 cells) [µg/mL] | IC50 (Cal-27 cells) [µg/mL] | IC50 (LNCaP cells; [5]) [µg/mL] | IC50 (U937 cells) [µg/mL] | mitochondrial membrane potential (Molt 4 cells [2]) | IC50 (HL 60 cells) [µg/mL] | IC50 (Sup-T1 cells) [µg/mL] | IC50 (Molt 4 cells [1]; [6]) [µg/mL] | IC50 (T-47D cells) [µg/mL] | IC50 (DLD-1 cells) [µg/mL] | expression of γH2AX (γH2AX in Molt 4 cells) | apoptotic population of Molt 4 cells (Molt 4 cells [3]) | further results
1 | COc1cc([C@@H]2c3cc4c(cc3[C@@H](O[C@@H]3O[C@@H]5CO[C@@H](C)O[C@H]5[C@H](O)[C@H]3O)[C@H]3COC(=O)[C@H]23)OCO4)cc(OC)c1O [etoposide, reference compound] | – | – | – | – | – | – | – | – | – | – | – | – | – | – | – | – | – | – | DNA product with topo II poison (human topoisomerase II; 500 μM, positive control, Lane 16): linear DNA strand was observed
2 | C=CCNC1=C2C[C@@H](C)C[C@H](OC)[C@H](O)[C@@H](C)/C=C(\C)[C@H](OC(N)=O)[C@@H](OC)/C=C\C=C(/C)C(=O)NC(=CC1=O)C2=O [Compound 17-AAG, 17-allylamine-17-demethoxygeldanamycin, reference compound] | – | – | – | – | – | – | – | – | – | – | – | – | – | – | – | – | – | – | IC50 (Molt 4 cells [1]; 24 h, molar value in brackets, read-out: IC50, suppression in cell growth, Molt 4): 7.2 µM; IC50 (Molt 4 cells [1]; 24 h, read-out: IC50, suppression in cell growth, Molt 4): 4.2 µg/mL
3 | COc1cccc2c1C(=O)c1c(O)c3c(c(O)c1C2=O)C[C@@](O)(C(=O)CO)C[C@@H]3O[C@H]1C[C@H](N)[C@H](O)[C@H](C)O1 [Doxorubicin, reference compound] | – | – | – | – | – | 0.05 (≈ 0.092 µM) | 0.2 (≈ 0.368 µM) | 0.01 (≈ 0.0184 µM) | – | 0.21 (≈ 0.386 µM) | – | 0.02 (≈ 0.0368 µM) | 0.02 (≈ 0.0368 µM) | 0.01 | 0.08 (≈ 0.147 µM) | 1.28 (≈ 2.35 µM) | – | – | IC50 (LNCaP cells; read-out: IC50, cytotoxicity, Prostate LNCaP): 2.47 µg/mL (≈ 4.54 µM)

Now from value to molecule, other results behind:

Row | inhibition at 0.08 µg/mL (human topoisomerase II) [%] | inhibition at 0.312 µg/mL (human topoisomerase II) [%] | inhibition at 1.25 µg/mL (human topoisomerase II) [%] | inhibition at 5 µg/mL (human topoisomerase II) [%] | inhibition at 20 µg/mL (human topoisomerase II) [%] | Structure (SMILES) | IC50 (Ca9-22 cells) [µg/mL] | IC50 (K562 cells) [µg/mL] | IC50 (Cal-27 cells) [µg/mL] | IC50 (LNCaP cells; [5]) [µg/mL] | IC50 (U937 cells) [µg/mL] | mitochondrial membrane potential (Molt 4 cells [2]) | IC50 (HL 60 cells) [µg/mL] | IC50 (Sup-T1 cells) [µg/mL] | IC50 (Molt 4 cells [1]; [6]) [µg/mL] | IC50 (T-47D cells) [µg/mL] | IC50 (DLD-1 cells) [µg/mL] | expression of γH2AX (γH2AX in Molt 4 cells) | apoptotic population of Molt 4 cells (Molt 4 cells [3]) | further results
4 | 7 | 13 | 28 | 90 | 98 | CC(C)=CCC/C(C)=C/CC/C(C)=C/CC/C(C)=C/CC1=CC(=O)C=CC1=O [Compound 3, 2-tetraprenil-1,4-benzochinone] | 0.97 (≈ 2.55 µM) | 0.7 (≈ 1.84 µM) | 0.51 (≈ 1.34 µM) | > 20 | 0.65 (≈ 1.71 µM) | disruption in mitochondrial membrane potential | 0.42 (≈ 1.1 µM) | 0.33 (≈ 0.867 µM) | 0.34 | 1.06 (≈ 2.79 µM) | 15.4 (≈ 40.5 µM) | activation of DNA damage was not observed | increase in the apoptotic population | IC50 (human topoisomerase II; cell-free system, read-out: IC50, inhibition of topo II activities (converted)): 1.13 µM; mice body weights versus control group ([4]; 1.14 μg/g intraperitoneal, 33 days): no significant difference; average tumor size on day 33 ([4]; 1.14 μg/g intraperitoneal, every other day, 33 days): 212.10 mm^3; suppression of the volume of xenograft tumor growth compared with the control ([4]; Molt 4 xenograft): 47.58%
5 | 12 | 23 | 36 | 90 | 99 | CC[C@@H](O)CC(=O)O[C@@H]1C[C@@H]2[C@@]3(C)CCC[C@](C)(CC)[C@@H]3CC[C@@]2(C)[C@@H]2CC=C(C(C)=O)[C@H](C=O)[C@@]12C (relative stereo) [Compound 2, 12β-(3′β-hydroxy-pentanoyloxy)-20,24-dimethyl-24-oxo-scalara-16-en-25-al] | 1.48 (≈ 2.88 µM) | 0.35 (≈ 0.68 µM) | 3.17 (≈ 6.16 µM) | > 20 | 0.61 (≈ 1.19 µM) | disruption in mitochondrial membrane potential | 0.22 (≈ 0.427 µM) | 0.42 (≈ 0.816 µM) | 0.3 | 1.87 (≈ 3.63 µM) | 1.71 (≈ 3.32 µM) | significantly enhanced the expression of γH2AX in a dose-dependent manner | increase in the apoptotic population | –
